Experimental data: patent US20150290171A1, “METHODS FOR THE TREATMENT OF BONE LOSS” (CELGENE CORPORATION, priority 2012, published 2015)
Like-named read-outs stand apart in the source and are kept apart here.

Tests used:
[1] = test system: Phosphodiesterase 4 enzyme; experiment: Inhibition of PDE4 (enzyme purified from U937 cells, [3H]-cAMP); assay type: biochemical; conditions: PDE4 from U937 human monocytic cells, 1 μM cAMP, 45 min at 30° C.
Method: Phosphodiesterase 4 enzyme was purified from U937 human monocytic cells by gel filtration chromatography, and phosphodiesterase reactions were carried out as previously described. See, e.g., Muller et al., Bioorg. Med. Chem. Lett., 1998, 8(19): 2669-2674. Briefly, reactions were carried out in 96-well deep-well plates in 50 mM Tris HCl pH 7.5, 5 mM MgCl2, 1 μM cyclic adenosine monophosphate (cAMP), plus 10 nM [^3H]-cAMP for 45 min at 30° C. The reactions were terminated by boiling, treated with 1 mg/ml snake venom, and separated using AG-1X8 ion exchange resin (BioRad). Reactions consumed less than 15% of available substrate.

[2] = test system: Human bone marrow mononuclear cells differentiated into OCL; experiment: OCL differentiation (osteoclastogenesis), number of TRAP-5+ cells; assay type: cell-based; conditions: OCL cultures, 7 days
sRANKL protein [3] = experiment: sRANKL protein levels in OCL cultures; assay type: cell-based, human
BMP-6 gene expression = BMP-6 gene expression in OCL cultures (RT-PCR); assay type: cell-based, human; conditions: FIG. 5
[4] = test system: RAW 264.7 mouse macrophages; experiment: OCL pit formation; assay type: cell-based; conditions: RAW 264.7 cells with RANKL 50 ng/mL, FIG. 6 and 7
sRANKL protein [5] = experiment: OBL culture, sRANKL protein in supernatant (ELISA); assay type: cell-based, human; conditions: 7 days; for reduction of sRANKL protein levels: OBL; for effect on sRANKL protein levels: OBL supernatants
Method: (§1) Normal human OBL (nHOST, Lonza) were grown using OBL basal medium containing 10% fetal bovine serum, ascorbic acid, and gentamicin/amphotericin-B (Lonza). Cells were grown to a density of 5×10^5 cells/mL. Compounds were added and the final concentration of dimethyl sulfoxide (DMSO) was 0.25%. Plates were incubated at 5% CO2, 37° C. for 7 days, changing media every 3 days and adding fresh compound. The supernatant was collected for analysis of RANKL (USCNK Life Science Inc), OPG (R&D Systems), and SOST (R&D Systems) by enzyme-linked immunosorbent assay (ELISA). Cells were stained for ALP.

OPG protein = experiment: OBL culture, OPG protein in supernatant (ELISA); assay type: cell-based, human; conditions: 0.1 μM
Method: as §1

sRANKL/OPG protein ratio = experiment: OBL culture, sRANKL/OPG protein ratio; assay type: cell-based, human
Method: as §1

sRANKL = experiment: OCY differentiation, sRANKL production (ELISA); assay type: cell-based, human
Method: (§2) OBL were differentiated into OCY using hydroxyapatite/tricalcium phosphate biphasic calcium phosphate ceramic particles (Graftys BCP), which were placed into polycarbonate filter well inserts, and the cell culture media was changed every 3 days for a total of 28 days. Gene expression was measured by quantitative RT-PCR for the following: RANK, RANKL, SOST, OPG, mothers against decapentaplegic homolog 1 (SMAD1), collagen 9A2 (COL9A2), vascular endothelial growth factor C (VEGFC), and fibroblast growth factor receptor 1 (FGFR1). Protein production was measured by ELISA.

SOST protein = experiment: OCY differentiation, SOST protein levels (ELISA); assay type: cell-based, human
Method: as §2

RANK gene expression = conditions: OCL cultures
Method: Human bone marrow mononuclear cells were differentiated into OCL using 10 nM dexamethasone and 10 nM vitamin D for 7 days. APR (0.1-10 μM) was added with fresh medium on days 0 and 3. […] OCL were lysed and RNA was isolated and converted to cDNA. Reverse transcription polymerase chain reaction (RT-PCR) was performed to measure gene expression of RANK and bone morphogenetic protein 6 (BMP-6).

CCOc1cc([C@@H](CS(C)(=O)=O)N2C(=O)c3cccc(NC(C)=O)c3C2=O)ccc1OC [(+)-2-[1-(3-ethoxy-4-methoxyphenyl)-2-methanesulfonylethyl]-4-acetylaminoisoindolin-1,3-dione]
IC50 [1]: 73.5 nM | reduction of number of TRAP-5+ cells ([2]; 0.1 μM): 21% | reduction of number of TRAP-5+ cells ([2]; 1 μM): 49% | reduction of number of TRAP-5+ cells ([2]; 10 μM): 73% | reduction of sRANKL protein levels (sRANKL protein [3]; 0.1 μM): 25% | reduction of sRANKL protein levels (sRANKL protein [3]; 1 μM): 21% | reduction of sRANKL protein levels (sRANKL protein [3]; 10 μM): 38% | effect on BMP-6 gene expression (BMP-6 gene expression): increase of BMP-6 gene expression | effect on OCL pit formation [4]: inhibition of OCL pit formation | reduction of sRANKL protein levels (sRANKL protein [5]; 1 μM): 25% | reduction of sRANKL protein levels (sRANKL protein [5]; 10 μM): 25% | increase of OPG protein levels (OPG protein): 42% | decrease of sRANKL/OPG protein ratio (sRANKL/OPG protein ratio; 0.1 μM): 39% | decrease of sRANKL/OPG protein ratio (sRANKL/OPG protein ratio; 1 μM): 32% | decrease of sRANKL/OPG protein ratio (sRANKL/OPG protein ratio; 10 μM): 40% | reduction of sRANKL production (sRANKL; 0.1 μM): 18% | reduction of sRANKL production (sRANKL; 1 μM): 14% | reduction of sRANKL production (sRANKL; 10 μM): 17% | reduction of SOST protein levels (SOST protein; 0.1 μM): 16% | reduction of SOST protein levels (SOST protein; 1 μM): 20% | reduction of SOST protein levels (SOST protein; 10 μM): 14% | inhibition of RANK gene expression (RANK gene expression; 1 μM): 30% | inhibition of RANK gene expression (RANK gene expression; 10 μM): 25%

COc1ccc(C2CNC(=O)C2)cc1OC1CCCC1 (stereo not drawn) [Rolipram, rolipram, reference compound]
effect on sRANKL protein levels (sRANKL protein [5]; 10 μM): no significant effect | effect on sRANKL/OPG ratio (sRANKL/OPG protein ratio; 10 μM): no effect

NCCCC(O)(P(=O)(O)O)P(=O)(O)O [Alendronate, alendronate, reference compound]
effect on sRANKL protein levels (sRANKL protein [5]; 10 μM): no significant effect | effect on sRANKL/OPG ratio (sRANKL/OPG protein ratio; 10 μM): no effect | inhibition of RANK gene expression (RANK gene expression; 10 μM): 77%

O=C(O)c1cc(/N=N/c2ccc(S(=O)(=O)Nc3ccccn3)cc2)ccc1O [sulfasalazine, reference compound]
effect on sRANKL protein levels (sRANKL protein [5]; 30 μM): no significant effect | effect on sRANKL/OPG ratio (sRANKL/OPG protein ratio; 30 μM): no effect
